Source: patent US10617671B2, “Use of NK-1 receptor antagonist serlopitant in pruritus” (Menlo Therapeutics Inc., priority 2013, dated 2020)

Tests used:
NCNga mice = details: picrylchloride-induced dermatitis; cited from earlier work
patients with OAB = details: cited from earlier work
CYP-3A4 mRNA = details: three individual preparations of human hepatocytes; cited from earlier work
[1] = tested on: cloned human NK-2 and NK-3 receptors; details: CHO cells stably expressing the respective receptors; cited from earlier work
[2] = Solubility of Compound 1 in solvents; type: physicochemical
Description: S-BTBA ((S)-1-[3,5-bis(trifluoromethyl)] phenylethanol)) (12) is reacted with trichloroacetonitrile (Sigma-Aldrich) in the presence of base 1,8-diazabicycloundec-7-ene (DBU) to produce imidate (13). HBF4 is used to catalyze the reaction of (11) with (13) to yield ether (14). Treatment with allylamine and bis-propylsulfonate cyclizes (14) to allylamine-protected pyrrolidine (15). Removal of the allyl protecting group with thiosalicylic acid and 1,4-bis(diphenylphosphino)butane (dppb), followed by […] (Pd2(dba)3) and isolation with acetic acid gives crystalline (16). Finally, (16) is reacted with 1,3-cyclopentanedione (Sigma-Aldrich) in isopropyl alcohol to give Compound 1. Compound 1 is a white to off-white powder.

human NK-1 receptor = human NK-1 receptor (Homo sapiens, UniProt P25103); details: cited from earlier work
Chain of human NK-1 receptor (P25103 whole entry, the tested form may be a part): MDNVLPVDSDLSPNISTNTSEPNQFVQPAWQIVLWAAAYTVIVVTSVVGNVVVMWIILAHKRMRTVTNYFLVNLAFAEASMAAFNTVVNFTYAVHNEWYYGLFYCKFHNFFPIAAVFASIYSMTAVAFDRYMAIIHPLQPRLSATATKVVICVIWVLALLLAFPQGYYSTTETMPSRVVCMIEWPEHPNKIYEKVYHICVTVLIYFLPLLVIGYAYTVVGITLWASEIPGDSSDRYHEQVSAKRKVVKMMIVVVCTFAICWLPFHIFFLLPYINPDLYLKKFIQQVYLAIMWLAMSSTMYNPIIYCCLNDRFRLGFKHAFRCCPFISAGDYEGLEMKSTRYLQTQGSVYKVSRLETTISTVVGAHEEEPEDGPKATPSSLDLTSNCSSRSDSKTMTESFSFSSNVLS

[3] = In vitro skin permeation, Franz diffusion cell; type: in vitro ADME; details: topical formulations B and C, LC-MS/MS, human skin, 37° C.
Protocol: In vitro skin permeation of serlopitant in topical formulations A-D was evaluated using a Franz diffusion cell. FIG. 2 illustrates a Franz diffusion cell. A Franz diffusion cell having a circular permeation area of 4.15 cm^2 and a receptor chamber volume of 19 mL was set up with a thermo-regulated outer water jacket to maintain the temperature at 37° C. The receptor chamber was filled with 19 mL 1×PBS (pH 7.5) containing 10% ethanol and 1% Tween® 80.
Human skin was pretreated to remove all subcutaneous fat and was cleaned with 70% ethanol before use. The skin was visually inspected to ensure that it was free of any surface irregularity or small holes and was equally divided into four pieces. The skin was then mounted onto the receptor chamber with the stratum corneum side facing up. About 100 mg of topical formulation A, B, C or D was applied to the skin (actual weight: A, 103.8 mg; B, 101.3 mg; C, 103.2 mg; and D, 103.8 mg), which was then covered with parafilm to avoid evaporation. […]
All samples were processed by solid-phase extraction (SPE) before LC-MS/MS analysis. […] Serlopitant concentrations in samples resulting from formulations A-D were determined by comparison to the standard. Serlopitant was not detected in samples resulting from topical formulations A and D, as expected. […] After an initial lag, serlopitant was detected by LC-MS/MS in the receptor chamber at 6 hours.

[4] = Solubility test in Franz cell receptor solution; type: physicochemical
[5] = tested on: patients with chronic pruritus; design: patients with considerable reduction in itch intensity: unit not given here; details: 80 mg daily for 3 to 13 days, cited from earlier work
[6] = tested on: patients with Sézary syndrome; details: oral, 80 mg daily, three patients with Sézary syndrome; cited from earlier work
CYP3A4 = CYP3A4 (Homo sapiens, UniProt P08684); details: cited from earlier work
Chain of CYP3A4 (P08684 whole entry): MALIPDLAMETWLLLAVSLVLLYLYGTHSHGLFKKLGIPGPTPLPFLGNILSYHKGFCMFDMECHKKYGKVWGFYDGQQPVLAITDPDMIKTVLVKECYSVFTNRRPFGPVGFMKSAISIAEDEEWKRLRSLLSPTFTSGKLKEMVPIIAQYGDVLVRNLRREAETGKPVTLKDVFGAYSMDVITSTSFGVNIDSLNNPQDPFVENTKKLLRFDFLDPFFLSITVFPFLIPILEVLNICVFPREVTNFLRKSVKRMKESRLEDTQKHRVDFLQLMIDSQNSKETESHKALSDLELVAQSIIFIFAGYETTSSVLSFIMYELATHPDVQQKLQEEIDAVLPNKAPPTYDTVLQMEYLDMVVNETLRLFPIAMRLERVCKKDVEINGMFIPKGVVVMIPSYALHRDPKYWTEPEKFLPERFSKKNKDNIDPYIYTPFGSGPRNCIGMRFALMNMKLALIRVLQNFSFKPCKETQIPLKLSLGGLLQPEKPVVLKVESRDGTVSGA

[7] = tested on: patients suffering from chronic pruritus; details: single topical dose, 5% in a lipophilic vehicle; cited from earlier work
CYP2C9 = CYP2C9 (Homo sapiens, UniProt P11712); details: cited from earlier work
Chain of CYP2C9 (P11712 whole entry): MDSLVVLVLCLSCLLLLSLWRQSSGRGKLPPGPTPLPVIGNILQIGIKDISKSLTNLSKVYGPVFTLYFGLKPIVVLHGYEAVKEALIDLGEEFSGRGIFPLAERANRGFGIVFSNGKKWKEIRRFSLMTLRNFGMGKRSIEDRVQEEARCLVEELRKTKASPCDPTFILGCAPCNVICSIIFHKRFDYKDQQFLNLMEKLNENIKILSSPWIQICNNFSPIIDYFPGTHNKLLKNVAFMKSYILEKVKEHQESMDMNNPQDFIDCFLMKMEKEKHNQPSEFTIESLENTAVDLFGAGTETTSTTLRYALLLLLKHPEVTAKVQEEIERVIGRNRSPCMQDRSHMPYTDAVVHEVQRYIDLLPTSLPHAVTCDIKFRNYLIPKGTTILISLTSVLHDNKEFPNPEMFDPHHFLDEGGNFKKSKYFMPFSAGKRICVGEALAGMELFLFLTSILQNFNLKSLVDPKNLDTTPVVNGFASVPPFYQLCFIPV

[8] = itch; cited from earlier work
[9] = tested on: patients with liver and kidney disease; details: cited from earlier work

CN(CCc1cc(C(F)(F)F)cc(C(F)(F)F)c1)C(=O)[C@H](c1ccccc1)N1CCN(CC2CC2)CC1 [BIIF 1149 CL]
scratching behavior (NCNga mice): inhibited scratching behavior

C[C@@H](O[C@H]1CC[C@@H]2CN(C3=CC(=O)CC3)C[C@H]2[C@@H]1c1ccc(F)cc1)c1cc(C(F)(F)F)cc(C(F)(F)F)c1 [Compound 1, 3-[(3aR,4R,5S,7aS)-5-[(1R)-1-[3,5-bis(trifluoromethyl)phenyl]ethoxy]-4-(4-fluorophenyl)-1,3,3a,4,5,6,7,7a-octahydroisoindol-2-yl]cyclopent-2-en-1-one]
number of daily micturitions compared with placebo (patients with OAB; 0.25 and 4 mg daily): significantly reduced | adverse experience of dry mouth (patients with OAB): not associated | dose response relationship with micturition frequency (patients with OAB): did not show a dose response relationship | drug-related serious adverse experiences (patients with OAB): no drug-related serious adverse experiences | secondary efficacy end points: urinary urgency, urge incontinence and total incontinence (patients with OAB): did not significantly influence | tolerability (patients with OAB): generally well tolerated | induction of CYP-3A4 mRNA (CYP-3A4 mRNA): did not significantly induce | selectivity for NK-1 over NK-2 and NK-3 receptors [1]: > 39,000 fold | solubility ([2]; acetonitrile): sparingly soluble | solubility ([2]; ethanol): soluble | solubility ([2]; ethyl acetate): sparingly soluble | solubility ([2]; isopropyl acetate): slightly soluble | solubility ([2]; isopropyl alcohol): sparingly soluble | solubility ([2]; methanol): freely soluble | solubility ([2]; water): insoluble | IC50 (human NK-1 receptor; read-out: IC50, displacement of substance P binding): 0.061 nM | Kd (human NK-1 receptor; read-out: Kd, binding to the human NK-1 receptor): 0.046 nM | time at which serlopitant was detected in the receptor chamber after initial lag [3]: 6 h | solubility in receptor solution ([4]; 0.5, 5 and 50 ug/mL in 1xPBS (pH 7.5) with 10% ethanol and 1% Tween 80, 1 hour at 37° C.): remained soluble | solubility change if Tween 80 was not used ([4]; 1xPBS (pH 7.5), 37° C.): decreased significantly | solubility change if ethanol was not used ([4]; 1xPBS (pH 7.5), 37° C.): decreased slightly

C[C@@H](O[C@H]1OCCN(Cc2n[nH]c(=O)[nH]2)[C@H]1c1ccc(F)cc1)c1cc(C(F)(F)F)cc(C(F)(F)F)c1 [aprepitant]
effect on chronic pruritus ([5]; atopic diathesis, prurigo nodularis): significantly decreased chronic pruritus | patients with considerable reduction in itch intensity ([5]; twenty patients): Eighty | treatment of pruritus [6]: had utility in treating pruritus | inhibition and induction of CYP3A4 (CYP3A4): moderate inhibitor as well as an inducer | absorption into the skin [7]: absorbed into the skin | effect on patients' itch [7]: not alleviated | inhibition and induction of CYP2C9 (CYP2C9): moderate inhibitor as well as an inducer

NCC1(CC(=O)O)CCCCC1 [gabapentin]
onset of action [8]: 5-6 weeks

C=C1CC[C@@]2(O)[C@H]3Cc4ccc(O)c5c4[C@@]2(CCN3CC2CC2)[C@H]1O5 [nalmefene]
effect on pruritus symptoms [9]: decreased pruritus symptoms | side effects [9]: significant central nervous and gastrointestinal side effects occurred

C=CCN1CC[C@]23c4c5ccc(O)c4O[C@H]2C(=O)CC[C@@]3(O)[C@H]1C5 [naloxone]
effect on pruritus symptoms [9]: decreased pruritus symptoms | side effects [9]: significant central nervous and gastrointestinal side effects occurred

O=C1CC[C@@]2(O)[C@H]3Cc4ccc(O)c5c4[C@@]2(CCN3CC2CC2)[C@H]1O5 [naltrexone]
effect on pruritus symptoms [9]: decreased pruritus symptoms | side effects [9]: significant central nervous and gastrointestinal side effects occurred

Cc1ccc(O)c([C@H](CCN(C(C)C)C(C)C)c2ccccc2)c1 [tolterodine, reference compound]
adverse experience of dry mouth (patients with OAB): common | efficacy compared with placebo (patients with OAB): statistically significantly more effective | efficacy compared with serlopitant at all efficacy end points (patients with OAB): numerically more effective
